From PubChem BioAssay AID248 (DTP/NCI, 2004)
Values joined by “and” are separate entries in the source; they are usually repeats but may differ in a detail not shown here. Equal values may be shown once. Inconclusive results and toxic doses are left out. No stated cut-off is given here; in the data, active means T/C of 150% or more; inactive means T/C below 125%.

Tested on: L1210 leukemia ip in BDF1 mice, survival T/C
Assay: NCI In Vivo Anticancer Drug Screen. Data for tumor model L1210 Leukemia (intraperitoneal) in B6D2F1 (BDF1) mice
Conditions: endpoint: mean survival time, higher = longer survival
Method in brief: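 In this screen, tumor-bearing mice given compound are compared to those given vehicle, and their survival values are reported as a treated-to-control quotient.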

[1] = dose: 100.0 mg/kg/injection, schedule: Q01DX001 (ip), vehicle: saline
[2] = dose: 200.0 mg/kg/injection, schedule: Q01DX001 (ip), vehicle: saline
[3] = dose: 400.0 mg/kg/injection, schedule: Q01DX001 (ip), vehicle: saline
[4] = dose: 100.0 mg/kg/injection, schedule: Q01DX009 (ip), vehicle: Klucel (hydroxypropylcellulose) (HPC)
[5] = dose: 200.0 mg/kg/injection, schedule: Q01DX009 (ip), vehicle: Klucel (hydroxypropylcellulose) (HPC)
[6] = dose: 400.0 mg/kg/injection, schedule: Q01DX009 (ip), vehicle: Klucel (hydroxypropylcellulose) (HPC)
[7] = dose: 25.0 mg/kg/injection, schedule: Q01DX009 (ip), vehicle: Klucel (hydroxypropylcellulose) (HPC)
[8] = dose: 50.0 mg/kg/injection, schedule: Q01DX001 (ip), vehicle: saline

Measured: T/C

O=C(/C=C/C=C/C=C/C=C/C(=O)N1CCCCC1)N1CCCCC1
inactive: [1] 97 % of control | [2] 92 % of control | [3] 89 % of control

CCOC(=O)c1ccc(NC(=O)Oc2ccc3c(C)cc(=O)oc3c2)cc1
inactive: [4] 101 % of control | [5] 100 % of control | [6] 89 % of control

N#C/C(=N\O)C(N)=O
inactive: [1] 102 % of control and 103 % of control | [2] 98 % of control and 107 % of control | [3] 93 % of control and 107 % of control

CCCCNC(C)(C)C(=O)c1cccs1
inactive: dose: 100.0 mg/kg/injection, schedule: Q04DX003 (ip), vehicle: saline 102 % of control | dose: 200.0 mg/kg/injection, schedule: Q04DX003 (ip), vehicle: saline 86 % of control

CN(C)C(=S)c1ccc(Cl)cc1
inactive: dose: 12.5 mg/kg/injection, schedule: Q01DX009 (ip), vehicle: Klucel (hydroxypropylcellulose) (HPC) 98 % of control | [7] 98 % of control

Cc1ccc(S(=O)(=O)N(CCCc2c(Cl)nc(N)nc2Cc2ccccc2)c2ccccc2)cc1
inactive: dose: 100.0 mg/kg/injection, schedule: Q04DX003 (ip), vehicle: gum acacia 97 % of control | dose: 200.0 mg/kg/injection, schedule: Q04DX003 (ip), vehicle: gum acacia 92 % of control | dose: 400.0 mg/kg/injection, schedule: Q04DX003 (ip), vehicle: gum acacia 94 % of control

O=C(Nc1ccccc1-c1ccc([N+](=O)[O-])cc1)c1ccc(-c2ccccc2)cc1
inactive: dose: 400.0 mg/kg/injection, schedule: Q04DX003 (ip), vehicle: saline 92 % of control

COc1cc(OC(=O)Nc2ccc([N+](=O)[O-])cc2OC)ccc1C=O
inactive: [7] 92 % of control | dose: 50.0 mg/kg/injection, schedule: Q01DX009 (ip), vehicle: Klucel (hydroxypropylcellulose) (HPC) 92 % of control | [4] 105 % of control and 88 % of control

OCCN1CCN(CC/C=C2\c3ccccc3COc3ccc(Cl)cc32)CC1
inactive: dose: 0.78 mg/kg/injection, schedule: Q03HX024 (ip), vehicle: saline 97 % of control | dose: 1.56 mg/kg/injection, schedule: Q03HX024 (ip), vehicle: saline 94 % of control | dose: 2.0 mg/kg/injection, schedule: Q01DX009 (ip), vehicle: saline 88 % of control | dose: 3.12 mg/kg/injection, schedule: Q01DX009 (ip), vehicle: saline 114 % of control and 123 % of control | dose: 3.12 mg/kg/injection, schedule: Q03HX024 (ip), vehicle: saline 96 % of control | dose: 3.12 mg/kg/injection, schedule: Q04DX003 (ip), vehicle: saline 97 % of control | dose: 4.0 mg/kg/injection, schedule: Q01DX009 (ip), vehicle: saline 98 % of control | dose: 6.25 mg/kg/injection, schedule: Q01DX009 (ip), vehicle: saline 107 % of control and 122 % of control | dose: 6.25 mg/kg/injection, schedule: Q04DX003 (ip), vehicle: saline 105 % of control and 120 % of control | dose: 8.0 mg/kg/injection, schedule: Q01DX009 (ip), vehicle: saline 96 % of control | dose: 12.5 mg/kg/injection, schedule: Q01DX001 (ip), vehicle: saline 106 % of control | dose: 12.5 mg/kg/injection, schedule: Q01DX009 (ip), vehicle: saline 114 % of control | dose: 12.5 mg/kg/injection, schedule: Q04DX003 (ip), vehicle: saline 103 % of control and 117 % of control | dose: 16.0 mg/kg/injection, schedule: Q01DX009 (ip), vehicle: saline 100 % of control | dose: 18.75 mg/kg/injection, schedule: Q01DX001 (ip), vehicle: saline 100 % of control | dose: 25.0 mg/kg/injection, schedule: Q01DX001 (ip), vehicle: saline 120 % of control | dose: 25.0 mg/kg/injection, schedule: Q04DX003 (ip), vehicle: saline 95 % of control and 119 % of control | dose: 37.5 mg/kg/injection, schedule: Q01DX001 (ip), vehicle: saline 120 % of control | [8] 101 % of control | dose: 50.0 mg/kg/injection, schedule: Q04DX003 (ip), vehicle: saline 101 % of control | dose: 75.0 mg/kg/injection, schedule: Q01DX001 (ip), vehicle: saline 88 % of control | [1] 118 % of control

Cc1cc2c(cc1C)C1(c3ccc(Cl)cc3)OC2(c2ccc(Cl)cc2)C2C(=O)OC(=O)C21 (stereo unspecified)
inactive: dose: 100.0 mg/kg/injection, schedule: Q01DX001 (ip), vehicle: Klucel (hydroxypropylcellulose) (HPC) 94 % of control | dose: 200.0 mg/kg/injection, schedule: Q01DX001 (ip), vehicle: Klucel (hydroxypropylcellulose) (HPC) 92 % of control | dose: 400.0 mg/kg/injection, schedule: Q01DX001 (ip), vehicle: Klucel (hydroxypropylcellulose) (HPC) 97 % of control

CC1C(OC(=O)Cc2ccccc2)=CCC2C1(C)CCC1C2(C)CCC2(C)C3CC(C)(C)CCC3(C)CCC12C (stereo unspecified)
inactive: [1] 98 % of control | [2] 104 % of control | [3] 104 % of control

COc1ccc2c3c1OC1C4(OC)CCC5(c6c(O)ccc(O)c64)C(C2)N(C)CCC315 (stereo unspecified)
inactive: [1] 86 % of control | [2] 96 % of control | [3] 94 % of control

CCN(CCOC(=O)Nc1cc([N+](=O)[O-])ccc1C)c1ccccc1
inactive: dose: 100.0 mg/kg/injection, schedule: Q04DX002 (ip), vehicle: Klucel (hydroxypropylcellulose) (HPC) 87 % of control | dose: 200.0 mg/kg/injection, schedule: Q04DX002 (ip), vehicle: Klucel (hydroxypropylcellulose) (HPC) 94 % of control | dose: 400.0 mg/kg/injection, schedule: Q04DX002 (ip), vehicle: Klucel (hydroxypropylcellulose) (HPC) 90 % of control

CC1NC(c2ccccc2)N(C(Cc2ccccc2)C(=O)O)C1=O (stereo unspecified)
inactive: [8] 94 % of control | [1] 89 % of control | [2] 99 % of control

COc1cc(OC)c(-c2nc3cc(Cl)ccc3c(=O)o2)cc1OC
inactive: dose: 87.5 mg/kg/injection, schedule: Q01DX009 (ip), vehicle: Klucel (hydroxypropylcellulose) (HPC) 114 % of control | dose: 175.0 mg/kg/injection, schedule: Q01DX009 (ip), vehicle: Klucel (hydroxypropylcellulose) (HPC) 98 % of control | dose: 350.0 mg/kg/injection, schedule: Q01DX009 (ip), vehicle: Klucel (hydroxypropylcellulose) (HPC) 93 % of control

CCCCCCCC/C=C\CCCCCCCC(=O)OCCCCCCCCCCCCCCCCCC
inactive: [4] 104 % of control | dose: 100.0 mg/kg/injection, schedule: Q01DX009 (ip), vehicle: saline sonified 105 % of control | [5] 91 % of control | dose: 200.0 mg/kg/injection, schedule: Q01DX009 (ip), vehicle: saline sonified 93 % of control | [6] 105 % of control | dose: 400.0 mg/kg/injection, schedule: Q01DX009 (ip), vehicle: saline sonified 98 % of control

O=[N+]([O-])c1ccc(C2OCCO2)cc1
inactive: dose: 100.0 mg/kg/injection, schedule: Q01DX001 (ip), vehicle: carboxymethylcellulose (CMC) 94 % of control | dose: 200.0 mg/kg/injection, schedule: Q01DX001 (ip), vehicle: carboxymethylcellulose (CMC) 91 % of control | dose: 400.0 mg/kg/injection, schedule: Q01DX001 (ip), vehicle: carboxymethylcellulose (CMC) 96 % of control

CC(=O)/C(=C\c1ccc(Cl)c(Cl)c1)C(=O)c1ccccc1
inactive: dose: 100.0 mg/kg/injection, schedule: Q01DX009 (ip), vehicle: other 97 % of control | dose: 100.0 mg/kg/injection, schedule: Q04DX003 (ip), vehicle: other 95 % of control | dose: 200.0 mg/kg/injection, schedule: Q01DX009 (ip), vehicle: other 103 % of control | dose: 200.0 mg/kg/injection, schedule: Q04DX003 (ip), vehicle: other 91 % of control | dose: 400.0 mg/kg/injection, schedule: Q04DX003 (ip), vehicle: other 93 % of control

C#CCN1C(=O)C(c2ccccc2)C2(CCN(C)CC2)C1=O (stereo unspecified)
inactive: dose: 100.0 mg/kg/injection, schedule: Q01DX001 (ip), vehicle: saline with Tween-80 105 % of control | dose: 200.0 mg/kg/injection, schedule: Q01DX001 (ip), vehicle: saline with Tween-80 108 % of control
